Data reported in paper PMC11649397, “The study of halogen effect on the reactivity of the serine-targeting covalent warheads” (Frontiers in Chemistry, 2024).
Like-named read-outs stand apart in the source and are kept apart here.

How the values were obtained:
hCES1A [1] = biological target: T1, hCES1A (Homo sapiens, UniProt P23141); assay: Inhibition assay on hCES1A (bioluminogenic substrate NLMe); assay type: biochemical; conditions: for IC50: mean ± SD, n = 3; for hCES1A IC50 Fold Increase: ratio of IC50 at 3 min to IC50 at 33 min
T1 sequence (P23141 18-567): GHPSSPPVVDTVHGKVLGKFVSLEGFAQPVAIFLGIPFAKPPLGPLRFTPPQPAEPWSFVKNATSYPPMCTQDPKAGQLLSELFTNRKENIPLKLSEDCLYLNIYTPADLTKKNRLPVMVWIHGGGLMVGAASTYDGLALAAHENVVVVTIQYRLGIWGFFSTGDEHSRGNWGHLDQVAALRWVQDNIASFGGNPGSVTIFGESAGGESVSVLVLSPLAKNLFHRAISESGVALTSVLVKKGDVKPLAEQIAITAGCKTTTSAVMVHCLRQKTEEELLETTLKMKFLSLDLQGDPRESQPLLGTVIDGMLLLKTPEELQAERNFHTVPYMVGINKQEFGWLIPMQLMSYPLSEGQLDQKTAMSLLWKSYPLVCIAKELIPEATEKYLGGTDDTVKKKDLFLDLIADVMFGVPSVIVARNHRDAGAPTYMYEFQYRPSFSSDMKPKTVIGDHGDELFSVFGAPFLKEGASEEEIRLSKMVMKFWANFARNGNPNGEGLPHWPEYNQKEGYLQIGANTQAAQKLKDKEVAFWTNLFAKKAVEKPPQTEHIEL
Method: In this study, a known bioluminogenic probe substrate NLMe was used for human carboxylesterase 1 (hCES1A) inhibition assays. ([Wang et al., 2020]). In brief, the incubation mixture (0.1 mL) consisted of 0.1 M buffer PBS (PH 6.5), hCES1A (0.1 μg/mL, final concentration) and each test compound. […] After 20 min incubation, equal volume of LDR was added to stop reaction. The luminescence signals were monitored in the microplate reader (SpectraMax iD3Molecular Devices, Austria). […]
(§1) The household library of covalent fragments including D and F was from Organic Chemistry […]
(§2) Fig. S1. Partial fragment molecules of a household library targeting to serine. […]
Inhibition assay on hCES1A
In this study, a known bioluminogenic probe substrate NLMe was used for human carboxylesterase 1 (hCES1A) inhibition assays. 2 In brief, the incubation mixture (0.1 mL) consisted of 0.1 M buffer PBS (PH 6.5), hCES1A (0.1 μg/mL, final concentration) and each test compound. […]
After 20 min incubation, equal volume of LDR was added to stop reaction.

hCES2A = biological target: T2, hCES2A (Homo sapiens, UniProt O00748); assay: Inhibition assay on hCES2A (fluorescent substrate FD); assay type: biochemical; conditions: mean ± SD, n = 3
T2 sequence (O00748 27-559): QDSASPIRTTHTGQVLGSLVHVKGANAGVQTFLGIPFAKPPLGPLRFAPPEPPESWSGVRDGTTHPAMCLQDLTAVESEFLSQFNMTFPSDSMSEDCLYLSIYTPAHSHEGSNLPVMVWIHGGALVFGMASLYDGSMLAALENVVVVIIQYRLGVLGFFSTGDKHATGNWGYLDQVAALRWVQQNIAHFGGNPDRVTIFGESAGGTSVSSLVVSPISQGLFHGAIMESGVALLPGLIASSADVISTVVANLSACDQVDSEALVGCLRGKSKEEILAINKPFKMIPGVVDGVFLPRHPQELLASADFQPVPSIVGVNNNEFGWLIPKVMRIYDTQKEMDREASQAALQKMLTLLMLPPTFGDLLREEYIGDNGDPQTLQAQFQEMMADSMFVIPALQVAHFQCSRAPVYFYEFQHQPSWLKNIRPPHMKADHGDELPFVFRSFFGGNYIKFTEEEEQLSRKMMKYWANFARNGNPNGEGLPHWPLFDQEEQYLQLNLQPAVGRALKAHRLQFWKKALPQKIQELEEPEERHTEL
Method: 1. Detailed experimental, materials, and methods
as §1, §2
Inhibition assay on hCES2A
Human carboxylesterase 2 (hCES2A) inhibition assays were conducted using FD, a known fluorescent substrate. 3 Briefly, hCES2A (0.4 μg/mL, final concentration) was preincubated with analytes/DMSO (as a control group) in PBS (pH 7.4) at 37 °C for 3 min. This was followed by adding the substrate FD (4 μM, final concentration) in the incubation mixture and allowing it to react for 30 min. The fluorescent signals (excitation/emission, 480 nm/525 nm) were continuously recorded by a microplate reader (SpectraMax iD3Molecular Devices, Austria). […]

hCES1A [2] = biological target: T1, hCES1A; assay: Co-crystallography with hCES1A; assay type: binding; conditions: 1:5 molar ratio
Method: Purified hCES1A incubated with F-3 and F-4 at 1:5 M ratio for 1 h at 18°C. Crystallisation screening was performed using commercially available kit sets using sitting drop vapor diffusion at 16°C. Both diffraction-quality crystals were obtained from the condition containing 14.4% peg8000 (w/v), 0.1M MES 6.4, 0.3M CaAc and 20% glycerol. Crystals were flash cooled in liquid nitrogen after cryoprotection in 25% glycerin. Date was collected on 02U1 at Shanghai Synchrotron Radiation Facility (SSRF). Data images were processed using program HKL2000. ([Otwinowski and Minor, 1997]). Crystal structures were solved using molecular replacement with the Phenix software suite using unbound hces1a (Protein Data Bank [PDB] accession number 1MX1 as the search model. Structure refinement was performed using Phenix. ([Adams et al., 2010]). The program COOT was used for manual rebuilding. ([Emsley and Cowtan, 2004]). Molecular graphics images were generated using CCP4MG. ([McNicholas et al., 2011]). […]
fluorogenic probe. 4 Briefly, the incubation mixtures (0.1 mL) contained Tris-HCl buffer, hPL solution (0.25 μg/mL, final concentration), porcine bile salt (0.1 mg/mL, final concentration) and each inhibitor (with different concentrations). […] The fluorescent signals of hydrolytic product were quantified by using the microplate reader (Spectra Max M4, Austria), with the wavelength of 600 nm and 660 nm for excitation and emission, respectively. […]
OPTS, a known fluorogenic probe, was used as the substrate to assess the residual activities of Notum in the presence of each tested compound. […] After preincubated at 37 °C for 1 min, OPTS was added to initiate the hydrolytic reaction and the multi-mode microplate reader (SpectraMax iD3, Molecular Devices, Austria) was used to analyze the florescence signals of the […]
The F-3, F-4, F-10-bound peptides was analysed using the nanoLC-MS/MS system, respectively.6 The purified hCES1A (150 μg, final content) was co-incubated with the small molecule inhibitor F-3/ F-4/ F-10 (100 μM, final concentration) at 4 °C and 25 °C, respectively, for 4h. […]

[3] = 3 min incubation, read-out: hCES1A IC50 3 min
[4] = 33 min incubation, read-out: hCES1A IC50 33 min
[5] = 3 min incubation, read-out: hCES2A IC50 3 min
[6] = 33 min incubation, read-out: hCES2A IC50 33 min

SMILES | IC50 (hCES1A [1]; [3]) [nM] | IC50 (hCES1A [1]; [4]) [nM] | hCES1A IC50 Fold Increase (hCES1A [1]) | IC50 (hCES2A; [5]) [nM] | IC50 (hCES2A; [6]) [nM] | covalent binding mode at the catalytic triad (Ser221) in co-crystal (hCES1A [2])
O=C(c1ccc(Cl)cc1)C(F)F [Compound F1-1] | 58 ± 6 | 102 ± 37.4 | 0.6 | – | – | –
O=C(CF)c1ccc(Cl)cc1 [Compound F1-2] | 1210 | 874 ± 92.2 | 1.4 | – | – | –
O=C(c1ccc(Cl)cc1)C(F)(F)F [Compound F-1] | 14.4 ± 1.9 | 1.9 ± 0.2 | 7.6 | 59.1 ± 9.8 | 71.3 ± 19.4 | –
O=C(c1cccc(Cl)c1)C(F)(F)F [Compound F-2] | 34.1 ± 5.3 | 2.5 ± 0.4 | 13.6 | 76.8 ± 10.9 | 90 ± 21 | –
O=C(c1ccccc1Cl)C(F)(F)F [Compound F-3] | 11.6 ± 0.7 | 2.3 ± 0.4 | 5.0 | 102 ± 20.6 | 85.6 ± 36 | promising covalent binding modes
O=C(c1ccc(Cl)c(Cl)c1)C(F)(F)F [Compound F-4] | 10 ± 1.4 | 2.4 ± 0.4 | 4.2 | – | – | forming an expected hemiacetal covalent bond
O=C(c1cc(Cl)c(Cl)c(Cl)c1)C(F)(F)F [Compound F-10] | 30 ± 4.5 | 2.8 ± 0.4 | 10.7 | – | – | –
O=C(c1ccc(C(F)(F)F)cc1)C(F)(F)F [Compound F-11] | > 2000 | > 2000 | – | – | – | –
Nc1ccc(C(=O)C(F)(F)F)cc1 [Compound F-12] | 470 ± 120 | 670 ± 130 | – | – | – | –
COc1ccc(C(=O)C(F)(F)F)cc1 [Compound F-14] | 30.2 ± 12.1 | 29.7 ± 20.7 | – | – | – | –
CCc1ccc(C(=O)C(F)(F)F)cc1 [Compound F-15] | 18.7 ± 4.2 | 23.8 ± 12.4 | – | – | – | –

Second part, led by results:

IC50 (hCES1A [1]; [3]) [nM] | IC50 (hCES1A [1]; [4]) [nM] | hCES1A IC50 Fold Increase (hCES1A [1]) | IC50 (hCES2A; [5]) [nM] | IC50 (hCES2A; [6]) [nM] | SMILES | covalent binding mode at the catalytic triad (Ser221) in co-crystal (hCES1A [2])
17 ± 3 | 1.7 ± 0.5 | 10.0 | – | – | O=C(c1cccc(Br)c1)C(F)(F)F [Compound F-5] | –
9.9 ± 1.01 | 52.8 ± 15.9 | 0.2 | – | – | O=C(c1ccccc1Br)C(F)(F)F [Compound F-6] | –
16.1 ± 2.3 | 2.1 ± 0.6 | 7.7 | – | – | O=C(c1ccc(Br)cc1)C(F)(F)F [Compound F-7] | –
1700 | 603 ± 107 | 2.8 | – | – | O=C(c1ccc(F)cc1)C(F)(F)F [Compound F-8] | –
37.7 ± 8.6 | 6.2 ± 1.1 | 6.1 | – | – | O=C(c1ccc(I)cc1)C(F)(F)F [Compound F-9] | –
